Measured values as given in publication PMC3274588 (The Plant Journal, 2011).
Residue numbers refer to the chain shown, from its start. Where two headings read alike, the source gives them in different places.

Legend:
[1] = target: T1, ACD2 (ACCELERATED CELL DEATH 2; ACD2^40-320; Red Chlorophyll Catabolite Reductase) (Arabidopsis thaliana, UniProt Q8LDU4); experiment: intrinsic tryptophan fluorescence quenching; type: binding
T1 sequence (Q8LDU4 40-319): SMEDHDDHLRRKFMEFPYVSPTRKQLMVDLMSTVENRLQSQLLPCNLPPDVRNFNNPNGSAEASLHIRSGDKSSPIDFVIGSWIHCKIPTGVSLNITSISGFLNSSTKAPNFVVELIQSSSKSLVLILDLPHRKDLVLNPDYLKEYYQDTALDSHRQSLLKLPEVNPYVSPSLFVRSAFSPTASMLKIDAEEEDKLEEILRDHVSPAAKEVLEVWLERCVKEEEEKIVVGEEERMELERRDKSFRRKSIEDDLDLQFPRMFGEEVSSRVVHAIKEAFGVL

[2] = target: T2, ACD2 (ACCELERATED CELL DEATH 2; ACD2^40-320; Red Chlorophyll Catabolite Reductase) (Arabidopsis thaliana, UniProt Q8LDU4, E154A/D291H); experiment: intrinsic tryptophan fluorescence quenching; type: binding; details: 0.1 μM protein, 50 mM Na2HPO4 pH 8.0, 25 mM NaCl, 22°C, excitation 296 nm
T2 sequence (Q8LDU4 40-319 E154A/D291H): T1 sequence (Q8LDU4 40-319) with E115A, D252H

SMILES | Kd [1] [µM] | Kd [2] [µM] | Kd ([1]; 0.1 μM protein, 50 mM Na2HPO4 pH 8.0, 25 mM NaCl, 22°C, excitation 296 nm) [µM]
C=CC1=C(C)c2cc3[nH]c(cc4nc(cc5[nH]c(cc1n2)c(C)c5CCC(=O)O)C(CCC(=O)O)=C4C)c(C)c3C=C [PPIX] | 0.31 ± 0.02 |  | 
C=CC1=C(C)/C(=C/C2=NC(=C3\c4[nH]c(Cc5[nH]c(C=O)c(C)c5CC)c(C)c4C(=O)[C@@H]3C(=O)OC)/[C@@H](CCC(=O)O)[C@@H]2C)NC1=O [RCC] |  | 0.34 ± 0.03 | 0.36 ± 0.03
